Test results reported in patent US12565515B2, “1,2,4-oxadiazole compounds as inhibitors of CD47 signalling pathways” (AURIGENE ONCOLOGY LIMITED, priority 2018, dated 2026).

Tests used:
[1] = tested on: A20 syngeneic lymphoma; test: Efficacy in A20 syngeneic lymphoma model; format: in vivo; details: for TGI (%): per orally
Text: Female Balb/c (BALB/cAnNTac) mice (6-8 weeks-old) bred in-house were used in this efficacy study in the A20 syngeneic lymphoma model. Animals were marked individually with tail marks and kept in cages that were identified by a cage card showing the study code, date of experimentation, sex and number of animals. During the experiment, the animals were weighed daily. A20 cell line (B-cell lymphoma line derived from a spontaneous reticulum cell neoplasm found in an old BALB/cAnN mouse) was procured from ATCC. When the mean tumor volumes reached approximately 75 mm^3, the animals were randomized based on tumour volumes into four groups of twelve animals in each group. Following randomization into various treatment groups, dosing with vehicle and Compound 6 was initiated. All treatments were administered per orally at a twice daily dosing frequency using a dose of 3 mg/kg, 10 mg/Kg and 30 mg/Kg. The treatment was continued for a period of 21 days after which the overall efficacy and tolerability were evaluated based on tumor volume and body weight changes observed during the treatment period. On treatment day 21, animals from all the treatment groups were sacrificed in sequential order at 1 hour after last dose administration.
Individual animal body weights were recorded daily before the administration of test item throughout the experimental period. […] The tumor volumes were measured in all treatment group animals thrice a week (once every 2-3 days) using a digital Vernier callipers. From an ethical viewpoint, any treatment/control group with a mean tumor weight in excess of 10% of animal body weight were humanely sacrificed. As a measure of efficacy, the % T (treatment)/C(control) and % TGI (% Tumor growth inhibition) values were calculated. Graphs and statistical analysis were performed using GraphPad Prism®, Version 7.0. For analysis of tumor volume data, statistical comparison was done on Day 21 for all groups using One-way ANOVA with Dunnett's multiple comparison test. All analyses and comparisons was evaluated at the 5% (p<0.05) level. A “p” value less than 0.05 was considered as significant.

[2] = tested on: H929 cells; test: FACS based phagocytosis assay; format: cell-based; details: NCI-H929, human macrophages, CFSE stained H929 cells, flow cytometry, normalized to positive control B6H12
Experimental: (§1) DPBS (Gibco), RPMI 1640 WITH HEPES AND L-GLN-500 ML (Lonza), Recombinant Human M-CSF (R& D systems), CD47 Monoclonal Antibody (B6H12), Functional Grade antibody (Ebioscience), Mouse IgG1 kappa Isotype Control, Functional Grade (Ebioscience), Vacutainer (multiple sample luer adapter) (BD), Vacutainer (sodium heparin (NH) 158USP units, Blood collection tubes (BD), Histopaque (density—1.077 gm/ml) (SIGMA 1077), Trypan Blue solution (SIGMA-T8154), Hemacytometer (Bright line-SIGMA Z359629), Scalp vein infusion set (JMS), Cell Dissociation buffer (Gibco), 48-well sterile flat bottom plates (Corning), Luciferase expressing Raji cells (Generated in house by trasfection of luciferase gene in Raji cells) Luminometer, Hygromycin B (Invitrogen), Bright Glo luciferase assay system (Promega), 96 well plate, polystyrene, high band, white flat bottom wells (Sigma CLS3912), APC anti-mouse/human CD11b Antibody (Biolegend), H929 cells, CFSE (Ebioscience), Fetal Bovine Serum (Gibco Cat #: 10437028), Round-Bottom FACs Tubes (BD), Flowcytometer BD FACS Verse, 96 well plates, ultra-low attachment (Corning).
Monocytes were isolated from blood of healthy donor and cultured for 6-8 days using 10% RPMI (Roswell Park Memorial Institute) media and recombinant human M-CSF to differentiate into macrophages. Media was changed every alternate day. Simultaneously, H929 cells were cultured in 10% RPMI media with 50 μg/mL of betamercaptoethanol in tissue culture flask. On the day of phagocytosis adherent macrophages were serum starved for 2 hours in RPMI media. Simultaneously H929 cells were stained with 0.3 μM CFSE stain. After washing, 0.2 million CFSE stained H929 cells were incubated with anti-human CD47 or Mouse IgG1 K Isotype Control antibody or various conc of test item in serum free media for 30 min at 37° C. After 2 hours of serum starvation macrophages were dissociated with cell dissociation buffer and collected by gentle scraping and added at conc of 0.05 million per well into respective wells of the ultra-low attachment 96 well plate seeded with H929 cells. Phagocytosis was allowed for 2 hours. After 2 hours, cells were washed with PBS and stained with 1 μL of anti-human CD11b-APC antibody prepared in 100 μL of PBS for 30 min in 4° C. in dark. Cells were further washed and fixed in 100 μL of fixation buffer until acquired by Flow cytometry. The extent of phagocytosis of H929 cells by human macrophages was measured by acquiring the samples by Flow cytometry. Samples acquired by Flow cytometry were analysed by using FlowJo software. Each experimental condition was carried out in duplicate. Cells positive for FITC (CFSE) and CD11b-APC were considered as phagocytosed macrophages. Raw data of % phagocytosis by macrophages were obtained in the form of excel sheet from FlowJo. % phagocytosis from isotype control (background phagocytosis) was subtracted from % phagocytosis of macrophages treated with compound as well as other controls to get corrected phagocytosis values. Corrected phagocytosis values of compound treated samples were normalized with phagocytosis of positive control (B6H12) using the formula: % normalized phagocytosis=[(corrected % phagocytosis of compound)/(corrected phagocytosis of B6H12)*100]

[3] = tested on: luciferase expressing Raji cells; test: Luciferase based phagocytosis assay; format: cell-based; details: human monocyte-derived macrophages, luminescence, read-out: % normalized phagocytosis (at 10 μM)
Experimental: as §1
In vitro phagocytosis assay was performed to evaluate the ability of test item to enhance the phagocytic activity of macrophages. Monocytes were isolated from blood of healthy donor and cultured for 6-8 days using 10% RPMI (Roswell Park Memorial Institute) media and recombinant human M-CSF to differentiate into macrophages. Media was changed every alternate day. After differentiation, adherent macrophages were collected by gentle scraping and cultured in 10% RPMI overnight at a density of 0.1 million per well in 48 well tissue culture plate. Simultaneously, luciferase expressing Raji cells were cultured in 10% RPMI media with 100 μg/mL of hygromycin B in tissue culture flask. On the day of phagocytosis, macrophages were serum starved for 2 hours. 0.4 million luciferase expressing Raji cells per well were incubated with anti human CD47 purified B6H12 or Mouse IgG1 K Isotype Control antibody or various concentrations of test item in serum free media for 30 min at 37° C. and added into respective well of the 48 well plate seeded with macrophages. After 2 hours, cells were washed twice with PBS and 100 μL of serum free RPMI was added to each well. Additionally, 50 μL Bright Glow reagent was added to each well followed by mixing of cells and incubated for 5 min in dark. Luminescence reading was taken using plate reader after transferring the content of each well to white plate. Intensity of luminescence indicated the extent of phagocytosis. Each experimental condition was carried out in duplicate.

## NC(=O)CC[C@H](N)c1noc(CNC(=O)N2CCCC2C(=O)O)n1 (stereo partly shown) [Compound 6]
[1]; 3 mg/kg (bid), 21 days, Balb/c mice
  TGI (%): 53%
[1]; 10 mg/kg (bid), 21 days, Balb/c mice
  TGI (%): 64%
[1]; 30 mg/kg (bid), 21 days, Balb/c mice
  TGI (%): 67%
[1]; 3, 10 and 30 mg/kg bid per orally, 21 days, Balb/c mice
  tolerability (body weight, clinical signs of toxicity): well tolerated without any signs of body weight loss and/or clinical signs of toxicity
[1]; all the tested dose levels (3, 10, 30 mg/kg bid), Day 21, one-way ANOVA
  antitumor efficacy, significance of tumor growth inhibition: statistically significant tumor growth inhibition (TGI) at all the tested dose levels
[2]
  activation at 10 µM: 74%
[3]
  activation at 10 µM: 66%
